Results taken from patent publication US20260265233A1, “BENZOTHIOPHENE DERIVATIVES AS RXFP1 AGONISTS” (BRISTOL-MYERS SQUIBB COMPANY, priority 2021, published 2026).

Target: T1, human RXFP1 (Homo sapiens, UniProt Q9HBX9)
T1 construct: expressed in transfected cells
T1 sequence (Q9HBX9 1-757): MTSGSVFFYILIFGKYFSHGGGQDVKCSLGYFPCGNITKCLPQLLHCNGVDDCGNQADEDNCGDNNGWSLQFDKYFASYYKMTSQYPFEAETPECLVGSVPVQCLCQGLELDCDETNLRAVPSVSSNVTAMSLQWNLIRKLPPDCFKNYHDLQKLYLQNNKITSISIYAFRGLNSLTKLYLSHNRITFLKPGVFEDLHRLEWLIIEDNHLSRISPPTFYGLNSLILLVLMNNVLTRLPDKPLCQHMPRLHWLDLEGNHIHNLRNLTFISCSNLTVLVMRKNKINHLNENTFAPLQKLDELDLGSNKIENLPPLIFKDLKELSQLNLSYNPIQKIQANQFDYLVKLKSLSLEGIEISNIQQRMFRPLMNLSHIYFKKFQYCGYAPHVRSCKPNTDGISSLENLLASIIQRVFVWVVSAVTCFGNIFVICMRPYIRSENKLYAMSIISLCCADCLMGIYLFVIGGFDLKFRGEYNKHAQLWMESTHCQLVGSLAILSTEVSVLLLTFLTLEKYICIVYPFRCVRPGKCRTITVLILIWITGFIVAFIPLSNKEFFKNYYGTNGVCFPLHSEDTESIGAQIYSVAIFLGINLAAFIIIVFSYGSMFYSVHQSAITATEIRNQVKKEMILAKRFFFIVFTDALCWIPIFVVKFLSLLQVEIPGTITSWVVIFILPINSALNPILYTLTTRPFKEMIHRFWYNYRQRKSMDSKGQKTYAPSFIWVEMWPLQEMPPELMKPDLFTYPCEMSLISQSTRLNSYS
Test: hRXFP1 HEK293 cAMP assay (HTRF)
Assay type: cell-based
Conditions: HEK293 cells stably expressing human RXFP1; 30 min at rt; intracellular cAMP by HTRF
Summary of the method: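 HEK293 cells stably expressing human RXFP1 treated 30 min at rt with compound (0.010 nM to 50 μM, 2% DMSO) in HBSS/HEPES buffer with 0.5 mM IBMX. Intracellular cAMP measured by HTRF (665/590 nm ratio) against a cAMP standard curve; potency fitted by 4-parameter logistic.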

| EC50 [nM] | SMILES |
| --- | --- |
| 636 | COC(=O)C1CC(c2ccc(OC)c(C(=O)Nc3c(C(=O)Nc4ccc(F)c(C(F)(F)F)c4)sc4cc(C(F)(F)F)ccc34)c2)=NO1 (centres unmarked) [Example 57, methyl 3-(3-((2-((4-fluoro-3-(trifluoromethyl)phenyl)carbamoyl)-6-(trifluoromethyl)benzo[b]thiophen-3-yl)carbamoyl)-4-methoxyphenyl)-4,5-dihydroisoxazole-5-carboxylate] |
| 3280 | COc1ccc(S(=O)(=O)N2CCC[C@@H](NCC(N)=O)C2)cc1C(=O)Nc1c(C(=O)Nc2ccc(F)c(C(F)(F)F)c2)sc2cc(C(F)(F)F)ccc12 [Example 31] |
| 954 | COc1ccc(-c2cc(C(NC(=O)C3CCOCC3)C(F)(F)F)ccc2F)cc1C(=O)Nc1c(C(=O)Nc2ccc(F)c(C(F)(F)F)c2)sc2cc(C(F)(F)F)ccc12 (single isomer, unassigned) [Example 20, N-(2,2,2-trifluoro-1-(6-fluoro-3′-((2-((4-fluoro-3-(trifluoromethyl)phenyl)carbamoyl)-6-(trifluoromethyl)benzo[b]thiophen-3-yl)carbamoyl)-4′-methoxy-[1,1′-biphenyl]-3-yl)ethyl)tetrahydro-2H-pyran-4-carboxamide] |
| 835 | CNC(=O)CN1CCCC(c2ccc(OC)c(C(=O)Nc3c(C(=O)Nc4ccc(F)c(C(F)(F)F)c4)sc4cc(C(F)(F)F)ccc34)c2)C1 (centres unmarked) [Example 78, N-(4-fluoro-3-(trifluoromethyl)phenyl)-3-(2-methoxy-5-(1-(2-(methylamino)-2-oxoethyl)piperidin-3-yl)benzamido)-6-(trifluoromethyl) benzo[b] thiophene-2-carboxamide] |
| 690 | COc1ccc(C2CCCN(C(=O)CO)C2)cc1C(=O)Nc1c(C(=O)Nc2ccc(F)c(C(F)(F)F)c2)sc2cc(C(F)(F)F)ccc12 (single isomer, unassigned) [Example 103, N-[4-fluoro-3-(trifluoromethyl)phenyl]-3-{5-[1-(2-hydroxyacetyl)piperidin-3-yl]-2-methoxy-benzamido}-6-(trifluoromethyl)-1-benzothiophene-2-carboxamide] |
| 1580 | COc1ccc(C2CCCN(CCCO)C2)cc1C(=O)Nc1c(C(=O)Nc2ccc(F)c(C(F)(F)F)c2)sc2cc(C(F)(F)F)ccc12 (centres unmarked) [Example 90, N-(4-fluoro-3-(trifluoromethyl)phenyl)-3-(5-(1-(3-hydroxypropyl)piperidin-3-yl)-2-methoxy-benzamido)-6-(trifluoromethyl) benzo[b] thiophene-2-carboxamide] |
| 192 | COc1ccc(C2=NOC(C)(CO)C2)cc1C(=O)Nc1c(C(=O)Nc2ccc(F)c(C(F)(F)F)c2)sc2cc(C(F)(F)F)ccc12 (single isomer, unassigned) [Example 253, N-(4-fluoro-3-(trifluoromethyl)phenyl)-3-(5-(5-(hydroxymethyl)-5-methyl-4,5-dihydroisoxazol-3-yl)-2-methoxy-benzamido)-6-(trifluoromethyl) benzo[b] thiophene-2-carboxamide] |
| 135 | COc1ccc(-c2cccc(C(=O)O)c2F)cc1C(=O)Nc1c(C(=O)Nc2ccc(F)c(C(F)(F)F)c2)sc2cc(C(F)(F)F)ccc12 [Example 14, 2-fluoro-3′-((2-((4-fluoro-3-(trifluoromethyl)phenyl)carbamoyl)-6-(trifluoromethyl)benzo[b]thiophen-3-yl)carbamoyl)-4′-methoxy-[1,1′-biphenyl]-3-carboxylic acid] |
| 9.6 | COc1ccc(C2=NC(C(=O)N3CC(CO)C3)CO2)cc1C(=O)Nc1c(C(=O)Nc2ccc(F)c(C(F)(F)F)c2)sc2cc(C(F)(F)F)ccc12 (centres unmarked) [Example 282, N-[4-fluoro-3-(trifluoromethyl)phenyl]-3-(5-{4-[3-(hydroxymethyl)azetidine-1-carbonyl]-4,5-dihydro-1,3-oxazol-2-yl}-2-methoxy-benzamido)-6-(trifluoromethyl)-1-benzothiophene-2-carboxamide] |
| 1080 | COc1ccc(N2CCC(NCCS(C)(=O)=O)C2)cc1C(=O)Nc1c(C(=O)Nc2ccc(F)c(C(F)(F)F)c2)sc2cc(C(F)(F)F)ccc12 (centres unmarked) [Example 68, N-(4-fluoro-3-(trifluoromethyl)phenyl)-3-(2-methoxy-5-(3-((2-(methylsulfonyl)ethyl)amino)pyrrolidin-1-yl)benzamido)-6-(trifluoromethyl) benzo[b] thiophene-2-carboxamide] |
| 2130 | COc1ncc(N2CCS(=O)(=O)CC2)cc1C(=O)Nc1c(C(=O)Nc2ccc(F)c(C(F)(F)F)c2)sc2cc(C(F)(F)F)ccc12 [Example 12, 5-(1,1-dioxidothiomorpholino)-N-(2-((4-fluoro-3-(trifluoromethyl)phenyl)carbamoyl)-6-(trifluoromethyl)benzo[b]thiophen-3-yl)-2-methoxynicotinamide] |
| 599 | COc1ccc(C2CCCC(NC3COC3)C2)cc1C(=O)Nc1c(C(=O)Nc2ccc(F)c(C(F)(F)F)c2)sc2cc(C(F)(F)F)ccc12 (single isomer, unassigned) [Example 61, N-(4-fluoro-3-(trifluoromethyl)phenyl)-3-(2-methoxy-5-(3-(oxetan-3-ylamino)cyclohexyl)benzamido)-6-(trifluoromethyl) benzo[b] thiophene-2-carboxamide] |
| 3140 | COc1ccc(C2=NOC3CC(NC(=O)CO)CC23)cc1C(=O)Nc1c(C(=O)Nc2ccc(F)c(C(F)(F)F)c2)sc2cc(C(F)(F)F)ccc12 (single isomer, unassigned) [Example 264, N-[4-fluoro-3-(trifluoromethyl)phenyl]-3-{5-[5-(2-hydroxyacetamido)-3aH,4H,5H,6H, 6aH-cyclopenta[d] [1,2]oxazol-3-yl]-2-methoxy-benzamido}-6-(trifluoromethyl)-1-benzothiophene-2-carboxamide] |
| 1250 | COc1ncc(C(=O)OC(C)(C)C)cc1C(=O)Nc1c(C(=O)Nc2ccc(F)c(C(F)(F)F)c2)sc2cc(C(F)(F)F)ccc12 [Example 223, tert-butyl 5-((2-((4-fluoro-3-(trifluoromethyl)phenyl)carbamoyl)-6-(trifluoromethyl)benzo[b]thiophen-3-yl)carbamoyl)-6-methoxynicotinate] |
| 4420 | COc1ccc(C2CCCN(CC(=O)N(C)C)C2)cc1C(=O)Nc1c(C(=O)Nc2ccc(F)c(C(F)(F)F)c2)sc2cc(C(F)(F)F)ccc12 (single isomer, unassigned) [Example 101, 3-(5-(1-(2-(dimethylamino)-2-oxoethyl)piperidin-3-yl)-2-methoxy-benzamido)-N-(4-fluoro-3-(trifluoromethyl)phenyl)-6-(trifluoromethyl) benzo[b] thiophene-2-carboxamide] |
| 220 | COc1ccc(C23CCC(C(C)(C)O)(CC2)CC3)cc1C(=O)Nc1c(C(=O)Nc2ccc(F)c(C(F)(F)F)c2)sc2cc(C(F)(F)F)ccc12 [Example 40, N-(4-fluoro-3-(trifluoromethyl)phenyl)-3-(5-(4-(2-hydroxypropan-2-yl)bicyclo [2.2.2]octan-1-yl)-2-methoxybenzamido)-6-(trifluoromethyl) benzo[b]thiophene-2-carboxamide] |
| 1480 | COc1ccc(N2CCC3(C2)CN(C2COC2)C3)cc1C(=O)Nc1c(C(=O)Nc2ccc(F)c(C(F)(F)F)c2)sc2cc(C(F)(F)F)ccc12 [Example 208, N-(4-fluoro-3-(trifluoromethyl)phenyl)-3-(2-methoxy-5-(2-(oxetan-3-yl)-2,6-diazaspiro[3.4]octan-6-yl)benzamido)-6-(trifluoromethyl) benzo[b] thiophene-2-carboxamide] |
| 4940 | COc1ccc(C2CC2C(C)(C)O)cc1C(=O)Nc1c(C(=O)Nc2ccc(F)c(C(F)(F)F)c2)sc2cc(C(F)(F)F)ccc12 (single isomer, unassigned) [Example 161, N-[4-fluoro-3-(trifluoromethyl)phenyl]-3-{5-[2-(2-hydroxypropan-2-yl)cyclopropyl]-2-methoxy-benzamido}-6-(trifluoromethyl)-1-benzothiophene-2-carboxamide] |
| 328 | COc1cc(C)c(C(=O)NCC2(S(C)(=O)=O)CC2)cc1C(=O)Nc1c(C(=O)Nc2ccc(F)c(C(F)(F)F)c2)sc2cc(C(F)(F)F)ccc12 [Example 187, N1-(2-((4-fluoro-3-(trifluoromethyl)phenyl)carbamoyl)-6-(trifluoromethyl)benzo[b]thiophen-3-yl)-6-methoxy-4-methyl-N3-((1-(methylsulfonyl)cyclopropyl)methyl) isophthalamide] |
| 3.8 | COc1ccc(-c2cccc(C(NC(=O)C3CCOCC3)C(=O)O)c2)cc1C(=O)Nc1c(C(=O)Nc2ccc(F)c(C(F)(F)F)c2)sc2cc(C(F)(F)F)ccc12 (single isomer, unassigned) [Example 25, 2-(3′-((2-((4-fluoro-3-(trifluoromethyl)phenyl)carbamoyl)-6-(trifluoromethyl)benzo[b]thiophen-3-yl)carbamoyl)-4′-methoxy-[1, 1′-biphenyl]-3-yl)-2-(tetrahydro-2H-pyran-4-carboxamido) acetic acid] |
